Laboratory results: the NIST ThermoML archive (doi:10.1016/j.jct.2019.02.011)
± gives the expanded uncertainty stated by the source.

Test: xn = mol fraction of the nth substance listed
Details: Liquid, Vibrating tube method

COC(=O)OC [dimethyl carbonate] + CCO
mass density [kg/m3]
Details | 100 kPa | 5000 kPa | 10000 kPa | 15000 kPa | 20000 kPa | 25000 kPa | 30000 kPa | 35000 kPa | 40000 kPa
293.15 K, x1 = 0.0252 | – | – | – | 811.64 ± 1.4 | 815.31 ± 1.4 | 819.03 ± 1.4 | 822.43 ± 1.4 | 825.77 ± 1.4 | 828.8 ± 1.4
293.15 K, x1 = 0.0506 | – | – | – | 821.2 ± 1.4 | 824.93 ± 1.4 | 828.7 ± 1.4 | 832.16 ± 1.4 | 835.5 ± 1.4 | 838.59 ± 1.4
293.15 K, x1 = 0.0757 | – | – | – | 830.53 ± 1.4 | 834.27 ± 1.4 | 838.04 ± 1.4 | 841.5 ± 1.4 | 844.9 ± 1.4 | 848.05 ± 1.4
293.15 K, x1 = 0.1003 | – | – | – | 839.43 ± 1.4 | 843.17 ± 1.4 | 846.95 ± 1.4 | 850.46 ± 1.4 | 853.86 ± 1.4 | 857.02 ± 1.4
293.15 K, x1 = 0.1508 | – | – | – | 857.39 ± 1.4 | 861.19 ± 1.4 | 864.97 ± 1.4 | 868.5 ± 1.4 | 871.96 ± 1.4 | 875.19 ± 1.4
293.15 K, x1 = 0.2 | – | – | – | 874.34 ± 1.4 | 878.21 ± 1.4 | 882.03 ± 1.4 | 885.62 ± 1.4 | 889.09 ± 1.4 | 892.34 ± 1.4
293.15 K, x1 = 0.2547 | – | – | 888.37 ± 1.4 | 892.5 ± 1.4 | 896.38 ± 1.4 | 900.3 ± 1.4 | 903.95 ± 1.4 | 907.43 ± 1.4 | 910.71 ± 1.4
293.15 K, x1 = 0.3002 | – | – | 903.11 ± 1.4 | 907.24 ± 1.4 | 911.13 ± 1.4 | 915.06 ± 1.4 | 918.71 ± 1.4 | 922.25 ± 1.4 | 925.54 ± 1.5
293.15 K, x1 = 0.3498 | – | – | 918.65 ± 1.4 | 922.78 ± 1.4 | 926.73 ± 1.4 | 930.66 ± 1.4 | 934.33 ± 1.5 | 937.83 ± 1.5 | 941.14 ± 1.5
293.15 K, x1 = 0.4 | – | – | 933.81 ± 1.4 | 937.95 ± 1.4 | 941.91 ± 1.5 | 945.85 ± 1.5 | 949.52 ± 1.5 | 953.08 ± 1.5 | 956.41 ± 1.5
293.15 K, x1 = 0.449 | – | – | 948.11 ± 1.5 | 952.25 ± 1.5 | 956.22 ± 1.5 | 960.16 ± 1.5 | 963.84 ± 1.5 | 967.41 ± 1.5 | 970.75 ± 1.5
293.15 K, x1 = 0.4996 | – | – | 962.37 ± 1.5 | 966.52 ± 1.5 | 970.5 ± 1.5 | 974.44 ± 1.5 | 978.13 ± 1.5 | 981.71 ± 1.5 | 985.12 ± 1.5
293.15 K, x1 = 0.5507 | – | – | 976.3 ± 1.5 | 980.45 ± 1.5 | 984.45 ± 1.5 | 988.38 ± 1.5 | 992.09 ± 1.5 | 995.67 ± 1.5 | 999.1 ± 1.5
293.15 K, x1 = 0.6005 | – | – | 989.41 ± 1.5 | 993.51 ± 1.5 | 997.52 ± 1.5 | 1001.46 ± 1.5 | 1005.17 ± 1.5 | 1008.76 ± 1.5 | 1012.2 ± 1.5
293.15 K, x1 = 0.6455 | – | – | 1000.79 ± 1.5 | 1004.95 ± 1.5 | 1008.96 ± 1.5 | 1012.9 ± 1.5 | 1016.62 ± 1.5 | 1020.22 ± 1.5 | 1023.68 ± 1.5
293.15 K, x1 = 0.6931 | – | – | 1012.44 ± 1.5 | 1016.6 ± 1.5 | 1020.62 ± 1.5 | 1024.56 ± 1.5 | 1028.29 ± 1.5 | 1031.89 ± 1.5 | 1035.36 ± 1.5
293.15 K, x1 = 0.7502 | – | – | 1025.93 ± 1.5 | 1030.04 ± 1.5 | 1034.07 ± 1.5 | 1038.07 ± 1.5 | 1041.8 ± 1.5 | 1045.41 ± 1.5 | 1048.9 ± 1.5
293.15 K, x1 = 0.8009 | – | – | 1037.44 ± 1.5 | 1041.56 ± 1.5 | 1045.6 ± 1.5 | 1049.6 ± 1.5 | 1053.34 ± 1.6 | 1056.96 ± 1.6 | 1060.46 ± 1.6
293.15 K, x1 = 0.8505 | – | – | 1048.32 ± 1.5 | 1052.45 ± 1.5 | 1056.49 ± 1.6 | 1060.49 ± 1.6 | 1064.24 ± 1.6 | 1067.85 ± 1.6 | 1071.38 ± 1.6
293.15 K, x1 = 0.9008 | – | – | 1058.94 ± 1.6 | 1063.09 ± 1.6 | 1067.15 ± 1.6 | 1071.17 ± 1.6 | 1074.9 ± 1.6 | 1078.5 ± 1.6 | 1082.06 ± 1.6
293.15 K, x1 = 0.9255 | – | – | 1064.04 ± 1.6 | 1068.18 ± 1.6 | 1072.28 ± 1.6 | 1076.27 ± 1.6 | 1080.01 ± 1.6 | 1083.62 ± 1.6 | 1087.15 ± 1.6
293.15 K, x1 = 0.9477 | – | – | 1068.54 ± 1.6 | 1072.7 ± 1.6 | 1076.81 ± 1.6 | 1080.81 ± 1.6 | 1084.52 ± 1.6 | 1088.13 ± 1.6 | 1091.64 ± 1.6
293.15 K, x1 = 0.9735 | – | – | 1073.72 ± 1.6 | 1077.83 ± 1.6 | 1081.94 ± 1.6 | 1085.94 ± 1.6 | 1089.66 ± 1.6 | 1093.25 ± 1.6 | 1096.74 ± 1.6
293.15 K, x1 = 1 | – | – | 1078.93 ± 0.58 | 1083.01 ± 0.59 | 1087.08 ± 0.6 | 1091.03 ± 0.61 | 1094.75 ± 0.63 | 1098.34 ± 0.64 | 1101.84 ± 0.66
298.15 K, x1 = 0.0252 | 795.08 ± 1.4 | 799.26 ± 1.4 | 803.35 ± 1.4 | 807.39 ± 1.4 | 811.05 ± 1.4 | – | – | – | –
298.15 K, x1 = 0.0506 | 804.43 ± 1.4 | 808.65 ± 1.4 | 812.8 ± 1.4 | 816.89 ± 1.4 | 820.61 ± 1.4 | – | – | – | –
298.15 K, x1 = 0.0757 | 813.64 ± 1.4 | 817.91 ± 1.4 | 822.06 ± 1.4 | 826.15 ± 1.4 | 829.93 ± 1.4 | – | – | – | –
298.15 K, x1 = 0.1003 | 822.42 ± 1.4 | 826.69 ± 1.4 | 830.89 ± 1.4 | 834.98 ± 1.4 | 838.77 ± 1.4 | – | – | – | –
298.15 K, x1 = 0.1508 | 840.14 ± 1.4 | 844.46 ± 1.4 | 848.67 ± 1.4 | 852.81 ± 1.4 | 856.66 ± 1.4 | – | – | – | –
298.15 K, x1 = 0.2 | 856.81 ± 1.4 | 861.18 ± 1.4 | 865.45 ± 1.4 | 869.59 ± 1.4 | 873.46 ± 1.4 | – | – | – | –
298.15 K, x1 = 0.2547 | 874.78 ± 1.4 | 879.19 ± 1.4 | 883.47 ± 1.4 | 887.66 ± 1.4 | 891.55 ± 1.4 | – | – | – | –
298.15 K, x1 = 0.3002 | 889.24 ± 1.4 | 893.65 ± 1.4 | 897.98 ± 1.4 | 902.17 ± 1.4 | 906.13 ± 1.4 | – | – | – | –
298.15 K, x1 = 0.3498 | 904.6 ± 1.4 | 909.01 ± 1.4 | 913.35 ± 1.4 | 917.59 ± 1.4 | 921.56 ± 1.4 | – | – | – | –
298.15 K, x1 = 0.4 | 919.63 ± 1.4 | 924.09 ± 1.4 | 928.49 ± 1.4 | 932.73 ± 1.4 | 936.77 ± 1.5 | – | – | – | –
298.15 K, x1 = 0.449 | 933.8 ± 1.4 | 938.26 ± 1.4 | 942.66 ± 1.5 | 946.91 ± 1.5 | 950.95 ± 1.5 | – | – | – | –
298.15 K, x1 = 0.4996 | 947.93 ± 1.5 | 952.44 ± 1.5 | 956.85 ± 1.5 | 961.1 ± 1.5 | 965.16 ± 1.5 | – | – | – | –
298.15 K, x1 = 0.5507 | 961.74 ± 1.5 | 966.24 ± 1.5 | 970.71 ± 1.5 | 974.95 ± 1.5 | – | – | – | – | –
298.15 K, x1 = 0.6005 | 974.67 ± 1.5 | 979.17 ± 1.5 | 983.64 ± 1.5 | 987.89 ± 1.5 | – | – | – | – | –
298.15 K, x1 = 0.6455 | 985.93 ± 1.5 | 990.48 ± 1.5 | 994.96 ± 1.5 | 999.21 ± 1.5 | – | – | – | – | –
298.15 K, x1 = 0.6931 | 997.5 ± 1.5 | 1002.05 ± 1.5 | 1006.53 ± 1.5 | 1010.78 ± 1.5 | – | – | – | – | –
298.15 K, x1 = 0.7502 | 1010.81 ± 1.5 | 1015.36 ± 1.5 | 1019.85 ± 1.5 | 1024.1 ± 1.5 | – | – | – | – | –
298.15 K, x1 = 0.8009 | 1022.25 ± 1.5 | 1026.8 ± 1.5 | 1031.29 ± 1.5 | 1035.55 ± 1.5 | – | – | – | – | –
298.15 K, x1 = 0.8505 | 1033.01 ± 1.5 | 1037.56 ± 1.5 | 1042.06 ± 1.5 | 1046.31 ± 1.5 | – | – | – | – | –
298.15 K, x1 = 0.9008 | 1043.58 ± 1.5 | 1048.13 ± 1.5 | 1052.63 ± 1.5 | 1056.89 ± 1.6 | – | – | – | – | –
298.15 K, x1 = 0.9255 | 1048.64 ± 1.5 | 1053.19 ± 1.5 | 1057.7 ± 1.6 | 1061.95 ± 1.6 | – | – | – | – | –
298.15 K, x1 = 0.9477 | 1053.11 ± 1.5 | 1057.69 ± 1.6 | 1062.19 ± 1.6 | 1066.43 ± 1.6 | – | – | – | – | –
298.15 K, x1 = 0.9735 | 1058.28 ± 1.6 | 1062.83 ± 1.6 | 1067.34 ± 1.6 | 1071.56 ± 1.6 | – | – | – | – | –
298.15 K, x1 = 1 | 1063.45 ± 0.56 | 1068 ± 0.57 | 1072.51 ± 0.58 | 1076.72 ± 0.59 | – | – | – | – | –
